# Where a SMILES comes first, the peptide text is derived from it.
# How the values were obtained:
# [1] = tested on: metastatic B16 melanoma cells; experiment: B16 melanoma metastasis in chick embryo lungs; assay type: in vivo; settings: 100 ug/embryo intravenously with cells; 7 days incubation; versus no-STQ-peptide group
# Experimental: Twelve-day old chick embryos (obtained from SPAFAS, North Franklin, Conn.) were injected intravenously with metastatic B16 melanoma cells (Chambers, et al., J. Natl. Cancer Inst. 1992; 84:797-803) in the presence or absence of STQ-peptide (100 ug/embryo). For each experiment, eight to ten chicks were tested under each set of conditions, and the experiment was repeated three times. The embryos were incubated for 7 days and then sacrificed. The chick lungs were analyzed for metastasis. B16 melanoma metastases appeared as discrete black lesions. The metastases were quantified by counting the B16 tumor lesions on the surface of the chick lungs for the STQ-peptide and no-STQ-peptide groups. B16 melanoma metastasis was inhibited by greater than 95% in the STQ-peptide group as compared to the no-STQ-peptide group (FIG. 5).
# [2] = tested on: Human RPE cells on denatured laminin; experiment: RPE cell adhesion to denatured laminin; assay type: cell-based; settings: for blockade of RPE cell adhesion to denatured laminin: 30 min attachment, crystal violet OD 600 nm
# Experimental: In vitro cell adhesion assays were conducted to determine whether the STQ-peptides bind to functional epitopes within denatured laminin that regulate cellular adhesion. Non-tissue culture treated 48-well plates were coated with denatured laminin. Human RPE cells were allowed to attach to the coated wells in the absence of STQ-peptide, in the presence of STQ-peptide at a concentration of 100 μg/ml, and in the presence of STQ-peptide at a concentration of 200 μg/ml.
# (§1) Human denatured laminin (25 μg/ml) was immobilized on 48-well non-tissue culture treated plates. Wells were washed and incubated with 1% BSA (bovine serum albumin) in PBS (phosphate-buffered saline) for one hour at 37° C. Subconfluent RPE cells were harvested, washed, and resuspended in adhesion buffer containing RPMI-1640 medium, 1 mM MgCl2, 0.2 mM MnCl2, and 0.5% BSA. RPE cells (10^5) were resuspended in 200 μl of the adhesion buffer in the presence or absence of STQ-peptide at a concentration of 100 μg/ml or 200 μg/ml, and were added to each well and allowed to attach for 30 minutes at 37° C. The unattached cells were removed and the attached cells were stained for 10 minutes with crystal violet as described by Petitclerc, et al., Cancer Res. 1999; 59:2724-2730. The wells were washed three times with PBS and cell-associated crystal violet was eluted by addition of 100 μl of 10% acetic acid. Cell adhesion was quantified by measuring the optical density of eluted crystal violet at a wavelength of 600 nm.
# A set of non-tissue culture treated 48-well plates were coated with native laminin in the presence of different concentrations of STQ-peptide according to the method described in Example 2 and by Petticlerc, et al., Cancer Res. 1999; 59:2724-2730. Another set of non-tissue culture treated plates were coated with denatured laminin in the presence of different concentrations of STQ-peptide. […] STQ-peptide had little effect on RPE cell adhesion to the wells coated with native laminin at any concentration of STQ-peptide tested (FIG. 3).
# [3] = tested on: bFGF-induced angiogenesis in chorioallantoic membrane (CAM); experiment: bFGF-induced angiogenesis in the chick CAM model; assay type: in vivo; settings: single intravenous injection 100 ug/embryo
# From the text: One angiogenesis assay measures angiogenesis in the chick chorioallantoic membrane (CAM) and is referred to as the CAM assay. The CAM assay is well known among those of ordinary skill in the art and has been used to measure both angiogenesis and neovascularization of tumor tissues (Ausprunk et al., Am. J. Pathol. 1975; 79:597-618 and Ossonski et al., Cancer Res. 1980; 40:2300-2309).
# Angiogenesis was induced within the chorioallantoic membrane (CAM) of 10-day old chick embryos with bFGF. Twenty-four hours later, 8-10 of the embryos were treated with a single intravenous injection of STQ-peptide (100 ug/embryo). At the end of a 3-day incubation period, the CAM tissues were removed for analysis. […] The single injection of STQ-peptide inhibited bFGF by greater than 95% (FIG. 4). […] Eight to ten chick embryos were tested in each of the two groups, and the experiment was repeated three times for a total of 24-30 chick embryos tested.
# [4] = tested on: RPE cells on native laminin; experiment: RPE cell adhesion to native laminin; assay type: cell-based, human; settings: any concentration of STQ-peptide tested (FIG. 3)
# Experimental: as §1
# A set of non-tissue culture treated 48-well plates were coated with native laminin in the presence of different concentrations of STQ-peptide according to the method described in Example 2 and by Petticlerc, et al., Cancer Res. 1999; 59:2724-2730. […]
# [5] = tested on: murine B16 melanoma cells on denatured laminin; experiment: B16 melanoma cell adhesion to denatured laminin; assay type: cell-based; settings: STQ-peptide-S 50 μg/ml
# Experimental: as §1
# (§2) An adhesion assay was performed according to the method described in Example 2 and by Petticlerc, et al., Cancer Res. 1999; 59:2724-2730. Non-tissue culture treated 48-well plates were coated with denatured laminin in the absence of STQ-peptide-S and in the presence of STQ-peptide-S at a concentration of 50 μg/ml. […]
# [6] = tested on: Human M21 melanoma cells on denatured laminin; experiment: M21 melanoma cell adhesion to denatured laminin; assay type: cell-based; settings: STQ-peptide-S 50 μg/ml
# Experimental: as §1, §2
Compound,inhibition of B16 melanoma metastasis (lung surface lesions) [1],blockade of RPE cell adhesion to denatured laminin ([2]; STQ-peptide 100 μg/ml),blockade of RPE cell adhesion to denatured laminin ([2]; STQ-peptide 200 μg/ml),inhibition of RPE cell adhesion to wells coated with denatured laminin ([2]; different concentrations of STQ-peptide (FIG. 3)),adverse effects following injection ([3]; chick embryos),"inhibition of bFGF-induced angiogenesis (branching vessels) ([3]; 24 h after bFGF, 3-day incubation)",effect on RPE cell adhesion to wells coated with native laminin [4],blockade of B16 melanoma cell adhesion to denatured laminin [5],blockade of M21 melanoma cell adhesion to denatured laminin [6]
"CC[C@H](C)[C@H](NC(=O)[C@H](CC(C)C)NC(=O)[C@H](CO)NC(=O)[C@H](CC(C)C)NC(=O)[C@H](CC(C)C)NC(=O)[C@H](CCC(N)=O)NC(=O)[C@H](C)NC(=O)[C@H](CC(N)=O)NC(=O)[C@H](CCC(N)=O)NC(=O)[C@@H](NC(=O)[C@H](CO)NC(=O)[C@H](CS)NC(=O)CNC(=O)CNC(=O)[C@@H](N)CCCCN)[C@@H](C)O)C(=O)N[C@H](C(=O)NCC(=O)N[C@@H](CCCCN)C(=O)N[C@@H](C)C(=O)O)C(C)C [STQ-peptide, NH2-K-G-G-C-S-T-Q-N-A-Q-L-L-S-L-I-V-G-K-A-COOH] (H-KGGCSTQNAQLLSLIVGKA-OH)",greater than 95%,greater than 95%,greater than 95%,concentration dependent inhibition,No adverse effects,greater than 95%,little effect,,
NH2-K-G-G-S-T-Q-N-A-Q-L-L-S-L-I-V-G-K-A-COOH (H-KGGSTQNAQLLSLIVGKA-OH) [STQ-peptide-S],,,,,,,,approximately 80%,approximately 80%

# From patent US7387998B2, “STQ peptides” (New York University, priority 2003, dated 2008)
